Where two headings read alike, the source gives them in different places.
Experiments:
[1] = test system: HCT116 homozygous MTAP knockout cells; assay: Proliferation assay (CellTiter-Glo, 10 days) in HCT116 homozygous MTAP knockout cells; assay type: cell-based; conditions: CellTiter-Glo after 10 days of treatment, read-out: Proliferation IC50 (nM) HCT116 MTAP_KO
Procedure, shortened: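 MTAP-null HCT116 clone made by CRISPR/Cas9 knockout of both alleles, tested beside parental cells. Cells dosed the day after seeding, split 1:10 on day 6 into fresh medium with the same compound level, and read on day 11 by CellTiter-Glo. IC50 taken after 10 days of exposure.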

[2] = test system: HCT116 parental cells; assay: Proliferation assay (CellTiter-Glo, 10 days) in HCT116 parental cells; assay type: cell-based; conditions: CellTiter-Glo after 10 days of treatment
Description: (§1) Control samples were analyzed in parallel.
Briefly, on Day 0, 250 HCT116 parental or HCT116 homozygous MTAP knockout cell were seeded in 96 well plates in McCoy's 5A supplemented with […] fetal bovine serum and pen/strep and the cells were incubated overnight at 37° C. plus 5% CO2.
The following day, cells were treated with DMSO vehicle control or a dose response of PRMT5 inhibitors and incubated at 37 C plus 5% CO2 for five days. On Day 6, the cells were trypsinized and split 1:10 into new 96-well plates with fresh medium containing the same concentration of PRMT5 inhibitor and incubated for an additional 5 days at 37° C. plus 5% CO^2.
On Day 11, the viability of the cells was measured using a CTG assay kit (CellTiter-Glo; Promega cat.no G7573) in accordance with the manufacturer's instructions. The IC50 values for each compound after 10 days of treatment were calculated using GraphPad PRISM software.

[3] = molecular target: T1, PRMT5/MEP50 complex (Homo sapiens, UniProt O14744); assay: PRMT5:MEP50 FlashPlate Assay (histone H4 peptide substrate, plus and minus MTA); assay type: biochemical
T1 construct: purchased Reaction Biology Corporation
Description: The PRMT5 inhibitory activity of compounds of the present invention was determined using either a PRMT5:MEP50 FlashPlate Assay (Reaction Biology Corporation) or a PRMT5:MEP50 HotSpot Assay (Reaction Biology Corporation).

[4] = test system: PRMT5-dependent Symmetric Di-methyl Arginine signal in HCT116 homozygous MTAP Knockout cells; assay: SYM11 In-Cell Western in HCT116 homozygous MTAP knockout cells; assay type: cell-based; conditions: 4 days of treatment, SYM11/DRAQ5 ratio as percent of DMSO control, read-out: In-cell-Western (SYM11) IC50 (nM) HCT116 MTAP_KO
Procedure, shortened: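 HCT116 cells with CRISPR homozygous MTAP knockout, alongside parental cells, treated four days with PRMT5 inhibitor dose response at 37° C., 5% CO2 in McCoy's 5A with 10% FBS.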

[5] = test system: PRMT5-dependent Symmetric Di-methyl Arginine signal in HCT116 parental cells; assay: SYM11 In-Cell Western in HCT116 parental cells; assay type: cell-based; conditions: HCT116 parental cells, 4 days of treatment, SYM11/DRAQ5 ratio as percent of DMSO control, read-out: In-cell-Western (SYM11) IC50 (nM) HCT216 parental
Description: as §1
Briefly, on Day 0, 2,000 HCT116 parental or HCT116 homozygous MTAP knockout cells were seeded in 96 well plates in McCoy's 5A supplemented with 10% fetal bovine serum and pen/strep and the cells were incubated overnight at 37° C. plus 5% CO2. The following day, cells were treated with DMSO vehicle control or a dose response of PRMT5 inhibitors, and incubated at 37° C. plus 5% CO^2 for four days.
After 4 days of treatment, the cells were fixed by adding 50 μl of 4% paraformaldehyde solution to each well and the cells were incubated for 20 min at room temperature. The paraformaldehyde solution was removed, 150 μl of ice-cold methanol was added and the plate was placed −20° C. for 10 minutes. The methanol was removed, 150 μl of Odyssey Blocking buffer+0.05% Tween20 was added and the plate was incubated at room temperature with shaking for one hour.
The primary SYM11 antibody solution was removed by aspiration and the wells were washed three consecutive times with phosphate buffered saline containing 0.1% Tween-20 (PBST).
The secondary antibody solution was removed by aspiration and the wells were washed three consecutive times with PBST.
The SYM11 signal and the DRAQ5 signal were quantified using a Li-Cor Odyssey machine reading at […], respectively. The SYM11/DRAQ5 ratio was used to calculate the inhibition of Symmetric Dimethyl Arginine as percent of DMSO control.

[6] = molecular target: T1, PRMT5/MEP50 complex; assay: PRMT5:MEP50 HotSpot Assay (full-length histone H2A substrate, plus and minus MTA); assay type: biochemical
Procedure, shortened: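 Radiometric HotSpot format using recombinant full-length histone H2A as substrate, run with and without MTA. Reactions were stopped and spotted onto filter paper. Tritiated H2A was quantified by scintillation counting.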

[7] = in the absence of MTA, read-out: IC50
[8] = read-out: IC50 + 2 μM MTA, in the presence of 2 μM MTA
[9] = IC50 + 2 μM MTA, in the presence of 2 μM MTA

T1 sequence (O14744 2-637 limits assumed): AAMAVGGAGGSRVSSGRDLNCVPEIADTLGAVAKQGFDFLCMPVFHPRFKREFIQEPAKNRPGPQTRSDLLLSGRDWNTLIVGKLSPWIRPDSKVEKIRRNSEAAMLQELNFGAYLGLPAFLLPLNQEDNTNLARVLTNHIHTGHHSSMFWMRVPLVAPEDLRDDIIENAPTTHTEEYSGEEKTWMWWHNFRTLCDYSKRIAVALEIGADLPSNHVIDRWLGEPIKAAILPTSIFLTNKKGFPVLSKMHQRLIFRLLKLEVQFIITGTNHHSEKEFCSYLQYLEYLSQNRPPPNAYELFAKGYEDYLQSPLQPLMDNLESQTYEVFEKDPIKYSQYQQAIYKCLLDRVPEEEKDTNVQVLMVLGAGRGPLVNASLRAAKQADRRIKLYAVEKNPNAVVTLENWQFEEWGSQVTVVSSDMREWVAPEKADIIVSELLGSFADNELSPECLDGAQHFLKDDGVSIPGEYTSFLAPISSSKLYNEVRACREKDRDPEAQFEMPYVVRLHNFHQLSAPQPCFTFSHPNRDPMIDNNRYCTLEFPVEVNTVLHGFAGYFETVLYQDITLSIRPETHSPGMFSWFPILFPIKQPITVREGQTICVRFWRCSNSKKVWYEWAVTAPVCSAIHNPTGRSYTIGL
T1 sequence (Q9BQA1 2-342 partner limits assumed): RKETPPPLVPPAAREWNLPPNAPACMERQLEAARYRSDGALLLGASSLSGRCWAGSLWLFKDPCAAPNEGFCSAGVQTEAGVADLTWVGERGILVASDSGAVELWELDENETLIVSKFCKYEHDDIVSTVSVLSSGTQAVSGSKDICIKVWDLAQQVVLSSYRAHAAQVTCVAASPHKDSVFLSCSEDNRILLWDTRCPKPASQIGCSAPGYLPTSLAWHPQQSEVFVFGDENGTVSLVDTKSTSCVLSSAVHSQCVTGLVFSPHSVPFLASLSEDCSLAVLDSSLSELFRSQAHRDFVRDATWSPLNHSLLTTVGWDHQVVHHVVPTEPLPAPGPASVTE

Row | Compound | IC50 [3, 7] | IC50 ([1]; Homo sapiens, HCT-116, 240 h) | IC50 ([2]; Homo sapiens, HCT-116, 240 h) | IC50 ([4]; Homo sapiens, HCT-116, 96 h) | IC50 ([5]; Homo sapiens, HCT-116, 96 h) | IC50 [6, 9] | other results
1 | 4-(aminomethyl)-6-(5-ethoxypyrazolo[1,5-a]pyridin-3-yl)phthalazin-1(2H)-one [Example 4-158] | 113 nM |  |  |  |  |  | IC50 [1]: 2200 nM; IC50 [2]: 1740 nM; IC50 [3, 8]: 2.8 nM; IC50 [4]: > 10000 nM; IC50 [5]: > 10000 nM; IC50 [6, 8]: 1460 nM
2 | Cc1c(F)c(-c2c(-c3cc(Cl)c4c(=O)[nH]nc(CN)c4c3)cnn2C)c(C#N)c2cc(Cl)cnc12 (single isomer, unassigned) [Example 16-110, (M)-6-(4-(4-(aminomethyl)-8-chloro-1-oxo-1,2-dihydrophthalazin-6-yl)-1-methyl-1H-pyrazol-5-yl)-3-chloro-7-fluoro-8-methylquinoline-5-carbonitrile] |  | 16 nM | 423 nM | 6 nM | 176 nM | 19 nM | 
3 | CCOc1cc(-c2cnn(C)c2-c2c(F)c(C)c3ncc(Cl)cc3c2C#N)cc2c(CN)n[nH]c(=O)c12 (single isomer, unassigned) [Example 16-111, (P)-6-(4-(4-(aminomethyl)-8-ethoxy-1-oxo-1,2-dihydrophthalazin-6-yl)-1-methyl-1H-pyrazol-5-yl)-3-chloro-7-fluoro-8-methylquinoline-5-carbonitrile] |  | 21 nM | 57 nM | 344 nM | 686 nM | 451 nM | 
4 | CCc1cncc(-c2ccc3c(=O)[nH]nc(CN)c3c2)c1 [Example 3-13, 4-(aminomethyl)-6-(5-ethylpyridin-3-yl)-phthalazin-1(2H)-one] | 420 nM |  |  |  |  |  | 
5 | COc1cccc(-c2c(-c3ccc4c(=O)[nH]nc(CN)c4c3)cnn2C)c1 [Example 4-93, 4-(aminomethyl)-6-(5-(3-methoxyphenyl)-1-methyl-1H-pyrazol-4-yl)phthalazin-1(2H)-one] | 35 nM |  |  |  |  |  | 
6 | Cc1cccc(-c2c(-c3ccc4c(=O)[nH]nc(CN)c4c3)cnn2C)c1 [Example 4-94, 4-(aminomethyl)-6-(1-methyl-5-(m-tolyl)-1H-pyrazol-4-yl)phthalazin-1(2H)-one] | 33 nM |  |  |  |  |  | 
7 | Cc1nc2cncc(-c3ccc4c(=O)[nH]nc(CN)c4c3)c2o1 [Example 4-110, 4-(aminomethyl)-6-(2-methyloxazolo[4,5-c]pyridin-7-yl)phthalazin-1(2H)-one] | > 100000 nM |  |  |  |  |  | 
8 | COCc1nc2sc(-c3c(-c4ccc5c(=O)[nH]nc(CN)c5c4)cnn3C)c(C#N)c2cc1Cl [Example 4-272, 2-(4-(4-(aminomethyl)-1-oxo-1,2-dihydrophthalazin-6-yl)-1-methyl-1H-pyrazol-5-yl)-5-chloro-6-(methoxymethyl)thieno[2,3-b]pyridine-3-carbonitrile] |  | 245 nM | > 10000 nM | 55 nM | > 1000 nM | 260 nM | 
9 | CC(=O)Nc1cc(-c2cnn(C)c2-c2sc3ccccc3c2C#N)cc2c(CN)n[nH]c(=O)c12 [Example 15-8, N-(1-(aminomethyl)-7-(5-(3-cyano-benzo[b]thiophen-2-yl)-1-methyl-1H-pyrazol-4-yl)-4-oxo-3,4-dihydrophthal-azin-5-yl)acetamide] |  | 96 nM | 155 nM | 96 nM | 720 nM | 109 nM | 
